Measured values taken from patent US11414424B2, “Cardiac sarcomere inhibitors” (Cytokinetics, Inc., priority 2018, dated 2022).

Tested on: bovine cardiac myofibrils
Assay: Myofibril assay: PK/LDH-coupled steady-state ATPase activity of skinned bovine cardiac myofibrils
Type: biochemical
Details: Ca2+ activating to 75% of maximal rate
Outline: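 Steady-state ATPase of detergent-skinned bovine left-ventricular myofibrils (1 mg/mL), PK/LDH-coupled NADH read at 340 nm, in PIPES/MgCl2 buffer pH 6.8 with 50 μM ATP, 0.6 mM EGTA and CaCl2 set for 50% or 75% activation. Inhibition of activity measured.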

SMILES	CDMF75 IC15 [nM]
O=C1C(C2COC2)N(Cc2ccc(F)c(Cl)c2)C(=O)CN1c1ncc(Cl)cc1F (centres unmarked) [Compound 668, 1-(5-chloro-3-fluoropyridin-2-yl)-4-(3-chloro-4-fluorobenzyl)-3-(oxetan-3-yl)piperazine-2,5-dione]	1400
O=C1C(C2CCOCC2)N(Cc2ccc(C(F)(F)F)cc2)C(=O)CN1c1ncc(Cl)cc1F (centres unmarked) [Compound 688, 1-(5-chloro-3-fluoropyridin-2-yl)-3-(tetrahydro-2H-pyran-4-yl)-4-(4-(trifluoro-methyl)benzyl)piperazine-2,5-dione]	3700
CC(=O)N1CC2(C1)C(=O)N(c1ccc(Cl)cc1F)C(C)C(=O)N2Cc1ccc(C(F)(F)F)cc1 (centres unmarked) [Compound 341, 2-acetyl-8-(4-chloro-2-fluorophenyl)-7-methyl-5-(4-(trifluoromethyl)benzyl)-2,5,8-triazaspiro[3.5]nonane-6,9-dione]	5400
O=CN1CC2(C1)CC1(C2)C(=O)N(c2ncc(Cl)cc2F)CC(=O)N1Cc1ccc(F)cc1 [Compound 828, 10-(5-chloro-3-fluoro-pyridin-2-yl)-7-(4-fluoro-benzyl)-8,11-dioxo-2,7,10-triazadispiro[3.1.56.14]-dodecane-2-carbaldehyde]	1370
N#Cc1ccc(N2CC(=O)N(Cc3ccc(C(F)(F)F)cc3)C3(CN(C=O)C3)C2=O)cc1F [Compound 194, 2-fluoro-4-(2-formyl-6,9-dioxo-5-(4-(trifluoromethyl)benzyl)-2,5,8-triazaspiro[3.5]nonan-8-yl)benzonitrile]	400
CC(C)(O)C1CC2(C1)C(=O)N(c1ccc(C#N)cc1F)CC(=O)N2Cc1ccc(C(F)(F)F)cc1 (centres unmarked) [Compound 479B]	2800
CNC(=O)N1CC2(C1)C(=O)N(c1ccc(C)cc1)CC(=O)N2Cc1ccc(C(F)(F)F)cc1 [Compound 153, N-methyl-6,9-dioxo-8-(p-tolyl)-5-(4-(trifluoromethyl)benzyl)-2,5,8-triazaspiro[3.5]-nonane-2-carboxamide]	6400
CC(C)NC(=O)N1CCC2(C1)C(=O)N(C(C)C)CC(=O)N2Cc1ccc(C(F)(F)F)cc1 (centres unmarked) [Compound 117, N,9-diisopropyl-7,10-dioxo-6-(4-(trifluoromethyl)benzyl)-2,6,9-triazaspiro[4.5]decane-2-carboxamide]	16600
O=C1[C@H](C2CC2)N(Cc2ccc(C(F)(F)F)cc2)C(=O)CN1c1ncc(Cl)cc1F [Compound 750, (S)-1-(5-chloro-3-fluoropyridin-2-yl)-3-cyclopropyl-4-(4-(trifluoromethyl)benzyl)piperazine-2,5-dione]	1000
O=C1C(C2CCS(=O)(=O)CC2)N(Cc2ccc(C(F)(F)F)cc2)C(=O)CN1c1ncc(Cl)cc1F (centres unmarked) [Compound 689, 1-(5-chloro-3-fluoropyridin-2-yl)-3-(1,1-dioxidotetra-hydro-2H-thiopyran-4-yl)-4-(4-(trifluoromethyl)-benzyl)piperazine-2,5-dione]	27900
Cc1cc(Cl)cnc1N1CC(=O)N(Cc2ccc(Cl)cc2)C2(CN(c3ccc(C#N)cn3)C2)C1=O [Compound 886, 6-(8-(5-chloro-3-methyl-pyridin-2-yl)-5-(4-chloro-benzyl)-6,9-dioxo-2,5,8-triazaspiro[3.5]nonan-2-yl)nicotinonitrile]	700
CNC(=O)N1CC2(C1)C(=O)N(c1ccc(C#N)cc1F)CC(=O)N2Cc1ccc(C2(C(F)(F)F)N=N2)cc1 [Compound 173, 8-(4-cyano-2-fluorophenyl)-N-methyl-6,9-dioxo-5-(4-(3-(trifluoromethyl)-3H-diazirin-3-yl)benzyl)-2,5,8-triazaspiro[3.5]nonane-2-carboxamide]	600
CC(C)CN1CC(=O)N(Cc2ccc(Cl)cc2)C2(CCN(c3ccccn3)C2)C1=O (centres unmarked) [Compound 84, 6-(4-chlorobenzyl)-9-isobutyl-2-(pyridin-2-yl)-2,6,9-triazaspiro[4.5]-decane-7,10-dione]	4000
CC(C)C(=O)N1CC2(C1)C(=O)N(c1ccc(C#N)cc1F)CC(=O)N2Cc1ccc(C(F)(F)F)cc1 [Compound 174, 3-fluoro-4-(2-isobutyryl-6,9-dioxo-5-(4-(trifluoromethyl)benzyl)-2,5,8-triazaspiro[3.5]nonan-8-yl)benzonitrile]	8000
COc1ccc(N2CC3(C2)C(=O)N(C(C)C)CC(=O)N3Cc2ccc(Cl)cc2)nn1 [Compound 51, 5-(4-chlorobenzyl)-8-isopropyl-2-(6-methoxypyridazin-3-yl)-2,5,8-triazaspiro-[3.5]nonane-6,9-dione]	5700
CNC(=O)N1CC2(C1)C(=O)N(c1ccc(C3CC3)cc1)CC(=O)N2Cc1ccc(C(F)(F)F)cc1 [Compound 158, 8-(4-cyclopropylphenyl)-N-methyl-6,9-dioxo-5-(4-(trifluoromethyl)benzyl)-2,5,8-triazaspiro[3.5]-nonane-2-carboxamide]	9700
CSCCC1C(=O)N(c2ncc(Cl)cc2F)CC(=O)N1Cc1ccc(C(F)(F)F)cc1 (centres unmarked) [Compound 610, 1-(5-chloro-3-fluoropyridin-2-yl)-3-(2-(methylthio)-ethyl)-4-(4-(trifluoro-methyl)-benzyl)piperazine-2,5-dione]	1700
CNc1ccc(N2CC3(C2)C(=O)N(c2ccc(C#N)cc2F)CC(=O)N3Cc2ccc(C(F)(F)F)cc2)cc1C(=O)OC [Compound 543, methyl 5-(8-(4-cyano-2-fluorophenyl)-6,9-dioxo-5-(4-(trifluoromethyl)benzyl)-2,5,8-triazaspiro[3.5]nonan-2-yl)-2-(methylamino)-benzoate]	300
CNC(=O)N1CC2(C1)C(=O)N(c1ccc(C#N)c(F)c1)CC(=O)N2Cc1ccc(C(F)(F)F)cc1 [Compound 162, 8-(4-cyano-3-fluorophenyl)-N-methyl-6,9-dioxo-5-(4-(trifluoromethyl)benzyl)-2,5,8-triazaspiro[3.5]-nonane-2-carboxamide]	400
O=C1CN(c2ccc(Cl)cc2F)C(=O)C2(CC2)N1Cc1ccc(C(F)(F)F)cc1 [Compound 271, 7-(4-chloro-2-fluorophenyl)-4-(4-(trifluoromethyl)-benzyl)-4,7-diazaspiro-[2.5]octane-5,8-dione]	600
COc1cnc(N2CC(=O)N(Cc3ccc(F)c(Cl)c3)C(C3COC3)C2=O)c(F)c1 (centres unmarked) [Compound 775, 4-(3-chloro-4-fluoro-benzyl)-1-(3-fluoro-5-methoxypyridin-2-yl)-3-(oxetan-3-yl)piperazine-2,5-dione]	8000
CC(C)C(=O)N1CC[C@]2(C1)C(=O)N(c1ccc(C#N)cc1F)CC(=O)N2Cc1ccc(C(F)(F)F)cc1 [Compound 223, (S)-3-fluoro-4-(2-isobutyryl-7,10-dioxo-6-(4-(trifluoromethyl)benzyl)-2,6,9-triazaspiro[4.5]decan-9-yl)benzonitrile]	2300
CNC(=O)c1cc(N2CC3(C2)C(=O)N(C(C)C)CC(=O)N3Cc2ccc(Cl)cc2)ccn1 [Compound 38, 4-(5-(4-chlorobenzyl)-8-isopropyl-6,9-dioxo-2,5,8-triazaspiro-[3.5]nonan-2-yl)-N-methylpicolinamide]	12400
